Target: T1, HSP90α (Homo sapiens, UniProt P07900)
T1 construct: 6H is tagged HSP90α protein (amino acids 2-732) expressed in E. coli; 6His; made in house; host or cells: E. coli
Test: Test (a) In Vitro Binding Assay (fluorescence polarisation, binding to the ATP pocket of HSP90α)
Settings: FP probe displacement, geometric mean where tested more than once
Description: Test (a) In Vitro Binding Assay
Test (a) measures the ability of a compound to bind to the ATP pocket of HSP90α. 6H is tagged HSP90α protein (amino acids 2-732) expressed in E. coli was purified and stored at −80° C. in aliquots. Assay measurements were performed in assay buffer comprising 20 mM HEPES pH 7.4, 50 mM KCl, 20 mM NaHMoO4, 0.01% Nonidet P40, 2 mM DTT and 0.1 mg/ml BSA. Following resuspension in DMSO, the FP probe 3-[[5-(5-ethyl-2,4-dihydroxy-phenyl)-4-(4-methoxyphenyl)2H-pyrazole-3-carbonyl]amino]propyl-Cy3B-amide; 14-(2-{[3-({[3-(5-ethyl-2,4-dihydroxyphenyl)-4-(4-methoxyphenyl)-1H-pyrazol-5-yl]carbonyl}amino)propyl]amino}-2-oxoethyl)-16,16,18,18-tetramethyl-2-sulfo-6,7,7a,8a,9,10,16,18-octahydrobenzo[2″,3″]indolizino [8″,7″:5′,6′]pyrano[3′,2′:3,4]pyrido[1,2-a]indol-5-ium) was diluted to a final concentration of 5 nM in assay buffer. Test compounds were prepared by dilution in 100% DMSO to give the appropriate dose range and dispensed into a 384 well assay plate as a 6X concentrate. Upon addition of recombinant HSP90α to a final assay concentration of 1 μg/ml, FP probe was added and plates incubated at room temperature for 1 to 4 hours. Final DMSO concentration was 1% in a total assay volume of 18 μl. Fluorescence Polarisation measurements were made using a Tecan Ultra plate reader using an excitation wavelength of 530 nm and an emission wavelength of 590 nm. Millipolarisation (mP) values were estimated using Xfluor software.
The data in the above table was generated in an assay substantially as described above in relation to in-vitro Binding Assay (a). Some of the compounds shown in the table were tested more than once in the assay. For those compounds the IC50 value shown is the geometric mean of the measured IC50 values. Therefore, as will be understood, the IC50 values quoted above are not absolute and further measurements of the IC50 values may result in a different mean IC50 value.

| IC50 [nM] | Compound |
| --- | --- |
| 619 | CCCN1C(=O)CN(Cc2ncc(C)c(OC)c2C)c2nc(N)ncc21 [Example 11.19, 2-amino-8-[(4-methoxy-3,5-dimethylpyridin-2-yl)methyl]-5-propyl-7,8-dihydropteridin-6(5H)-one] |
| 128 | COc1c(C)cnc(CN2c3nc(N)ncc3N(CCc3ccccc3)C(=O)[C@H]2C)c1C [Example 11.2, (7R)-2-amino-8-[(4-methoxy-3,5-dimethylpyridin-2-yl)methyl]-7-methyl-5-(2-phenylethyl)-7,8-dihydropteridin-6(5H)-one] |
| 803 | COc1c(C)cnc(CN2c3nc(N)ncc3N(CC3CC3)C(=O)[C@H]2C)c1C [Example 11.10, (7R)-2-amino-5-(cyclopropylmethyl)-8-[(4-methoxy-3,5-dimethylpyridin-2-yl)methyl]-7-methyl-7,8-dihydropteridin-6(5H)-one] |
| 3780 | COc1c(C)cnc(CN2CC(=O)N(CCC(C)C)c3cnc(N)nc32)c1C [Example 11.5, 2-amino-8-[(4-methoxy-3,5-dimethylpyridin-2-yl)methyl]-5-(3-methylbutyl)-7,8-dihydropteridin-6(5H)-one] |
| 1630 | COc1c(C)cnc(CN2c3nc(N)ncc3NC(=O)[C@H]2CC(=O)NCCCN(C)C)c1C [Example 14.1, 2-{(7R)-2-amino-8-[(4-methoxy-3,5-dimethylpyridin-2-yl)methyl]-6-oxo-5,6,7,8-tetrahydropteridin-7-yl}-N-[3-(dimethylamino)propyl]acetamide] |
| 96.8 | COc1c(C)cnc(CN2CC(=O)N(CCC(C)C)c3c(Cl)nc(N)nc32)c1C [Example 11.6, 2-amino-4-chloro-8-[(4-methoxy-3,5-dimethylpyridin-2-yl)methyl]-5-(3-methylbutyl)-7,8-dihydropteridin-6(5H)-one] |
| 4610 | COc1c(C)cnc(CN2c3nc(N)ncc3N(CCN3CCCC3=O)C(=O)[C@H]2C)c1C [Example 11.21, (7R)-2-amino-8-[(4-methoxy-3,5-dimethylpyridin-2-yl)methyl]-7-methyl-5-[2-(2-oxopyrrolidin-1-yl)ethyl]-7,8-dihydropteridin-6(5H)-one] |
| 166 | COc1c(C)cnc(CN2CC(=O)N(CCc3cccnc3)c3c(Cl)nc(N)nc32)c1C [Example 11.18, 2-amino-4-chloro-8-[(4-methoxy-3,5-dimethylpyridin-2-yl)methyl]-5-(2-pyridin-3-ylethyl)-7,8-dihydropteridin-6(5H)-one] |
| 4850 | COc1c(C)cnc(CN2c3nc(N)ncc3N(CCCN(C)C)C(=O)[C@H]2C)c1C [Example 11.13, (7R)-2-amino-5-[3-(dimethylamino)propyl]-8-[(4-methoxy-3,5-dimethylpyridin-2-yl)methyl]-7-methyl-7,8-dihydropteridin-6(5H)-one] |
| 16000 | COc1c(C)cnc(CN2c3nc(N)ncc3N(CC(C)(C)N(C)C)C(=O)[C@H]2C)c1C [Example 11.12, (7R)-2-amino-5-[2-(dimethylamino)-2-methylpropyl]-8-[(4-methoxy-3,5-dimethylpyridin-2-yl)methyl]-7-methyl-7,8-dihydropteridin-6(5H)-one] |
| 563 | COc1c(C)cnc(CN2c3nc(N)ncc3N(CCc3ccncc3)C(=O)[C@H]2C)c1C [Example 11.15, (7R)-2-amino-8-[(4-methoxy-3,5-dimethylpyridin-2-yl)methyl]-7-methyl-5-(2-pyridin-4-ylethyl)-7,8-dihydropteridin-6(5H)-one] |
| 100 | COc1c(C)cnc(CN2CC(=O)Nc3c(Cl)nc(N)nc32)c1C [Example 8, 2-Amino-4-chloro-8-[(4-methoxy-3,5-dimethyl-pyridin-2-yl)methyl]-5,7-dihydropteridin-6-one] |
| 2680 | COc1c(C)cnc(CN2c3nc(N)ncc3N(CCN3CCNC3=O)C(=O)[C@H]2C)c1C [Example 11.20, (7R)-2-amino-8-[(4-methoxy-3,5-dimethylpyridin-2-yl)methyl]-7-methyl-5-[2-(2-oxoimidazolidin-1-yl)ethyl]-7,8-dihydropteridin-6(5H)-one] |
| 788 | COc1c(C)cnc(CN2c3nc(N)ncc3N(C)C(=O)[C@H]2C)c1C [Example 4.2, (7R)-2-amino-8-[(4-methoxy-3,5-dimethylpyridin-2-yl)methyl]-5,7-dimethyl-7,8-dihydropteridin-6(5H)-one] |
| 324 | COc1c(C)cnc(CN2c3nc(N)ncc3N(Cc3ccccc3)C(=O)[C@H]2C)c1C [Example 11.9, (7R)-2-amino-5-benzyl-8-[(4-methoxy-3,5-dimethylpyridin-2-yl)methyl]-7-methyl-7,8-dihydropteridin-6(5H)-one] |
| 16700 | CCN1C(=O)[C@H](C)N(Cc2ncc(C)c(OC)c2C)c2nc(N)ncc21 [Example 4.1, (7S)-2-amino-5-ethyl-8-[(4-methoxy-3,5-dimethylpyridin-2-yl)methyl]-7-methyl-7,8-dihydropteridin-6(5H)-one] |
| 542 | COc1c(C)cnc(CN2c3nc(N)ncc3N(CCc3cccnc3)C(=O)[C@H]2C)c1C [Example 11.16, (7R)-2-amino-8-[(4-methoxy-3,5-dimethylpyridin-2-yl)methyl]-7-methyl-5-(2-pyridin-3-ylethyl)-7,8-dihydropteridin-6(5H)-one] |
| 81.8 | COc1c(C)cnc(CN2CC(=O)N(CCc3ccccc3)c3c(Cl)nc(N)nc32)c1C [Example 11.24, 2-amino-4-chloro-8-[(4-methoxy-3,5-dimethylpyridin-2-yl)methyl]-5-(2-phenylethyl)-7,8-dihydropteridin-6(5H)-one] |
| 552 | CCCN1C(=O)[C@@H](C)N(Cc2ncc(C)c(OC)c2C)c2nc(N)ncc21 [Example 11.8, (7R)-2-amino-8-[(4-methoxy-3,5-dimethylpyridin-2-yl)methyl]-7-methyl-5-propyl-7,8-dihydropteridin-6(5H)-one] |
| 1160 | COc1c(C)cnc(CN2CC(=O)Nc3cnc(N)nc32)c1C [Example 2.3, 2-amino-8-[(4-methoxy-3,5-dimethylpyridin-2-yl)methyl]-7,8-dihydropteridin-6(5H)-one] |
| 18400 | COc1c(C)cnc(CN2c3nc(N)ncc3N(C)C(=O)[C@@H]2C)c1C [Example 3, (7S)-2-amino-8-[(4-methoxy-3,5-dimethylpyridin-2-yl)methyl]-5,7-dimethyl-7,8-dihydropteridin-6(5H)-one] |
| 526 | COc1c(C)cnc(CN2c3nc(N)ncc3NC(=O)[C@H]2Cc2ccccc2)c1C [Example 7.2, (7R)-2-amino-7-benzyl-8-[(4-methoxy-3,5-dimethyl-pyridin-2-yl)methyl]-7,8-dihydropteridin-6(5H)-one] |
| 2400 | COc1c(C)cnc(CN2c3nc(N)ncc3N(CCN3CCOCC3)C(=O)[C@H]2C)c1C [Example 11.14, (7R)-2-amino-8-[(4-methoxy-3,5-dimethylpyridin-2-yl)methyl]-7-methyl-5-(2-morpholin-4-ylethyl)-7,8-dihydropteridin-6(5H)-one] |
| 15600 | COc1c(C)cnc(CN2c3nc(N)ncc3N(C)C[C@H]2C)c1C [Example 6.3, (7R)-8-[(4-methoxy-3,5-dimethylpyridin-2-yl)methyl]-5,7-dimethyl-5,6,7,8-tetrahydropteridin-2-amine] |
| 808 | COc1c(C)cnc(CN2CC(=O)Nc3c(C)nc(N)nc32)c1C [Example 15, 2-amino-8-[(4-methoxy-3,5-dimethyl-pyridin-2-yl)methyl]-4-methyl-5,7-dihydropteridin-6-one] |
| 2870 | COc1c(C)cnc(CN2c3nc(N)ncc3NC[C@H]2C)c1C [Example 6.2, (7R)-8-[(4-methoxy-3,5-dimethylpyridin-2-yl)methyl]-7-methyl-5,6,7,8-tetrahydropteridin-2-amine] |
| 191 | COc1c(C)cnc(CN2c3nc(N)ncc3N(CC(F)F)C(=O)[C@H]2C)c1C [Example 11.4, (7R)-2-amino-5-(2,2-difluoroethyl)-8-[(4-methoxy-3,5-dimethylpyridin-2-yl)methyl]-7-methyl-7,8-dihydropteridin-6(5H)-one] |
| 14800 | CCC[C@H]1C(=O)Nc2cnc(N)nc2N1Cc1ncc(C)c(OC)c1C [Example 2.1, (7S)-2-amino-8-[(4-methoxy-3,5-dimethylpyridin-2-yl)methyl]-7-propyl-7,8-dihydropteridin-6(5H)-one] |
| 288 | COc1c(C)cnc(CN2CC(=O)N(Cc3ccccc3)c3c(Cl)nc(N)nc32)c1C [Example 11.22, 2-amino-5-benzyl-4-chloro-8-[(4-methoxy-3,5-dimethylpyridin-2-yl)methyl]-7,8-dihydropteridin-6(5H)-one] |
| 325 | COC(=O)C[C@@H]1C(=O)Nc2cnc(N)nc2N1Cc1ncc(C)c(OC)c1C [Example 7.3, Methyl {(7R)-2-amino-8-[(4-methoxy-3,5-dimethylpyridin-2-yl)methyl]-6-oxo-5,6,7,8-tetrahydropteridin-7-yl}acetate] |
